# Measured values published in PubChem BioAssay (NCI).
#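 Compound exposure: 48 hours, 5 concentrations, 96-well plates. GI50 marks 50% less growth. TGI: concentration producing complete growth inhibition.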
# Key:
# Test in all cases: DTP human tumour cell line panel, 48 h
# [1] = test system: SN12C renal
# [2] = test system: U251 CNS
# [3] = test system: HT29 colon
# [4] = test system: UACC-62 melanoma
# [5] = test system: SK-OV-3 ovarian
# [6] = test system: OVCAR-5 ovarian
# [7] = test system: MALME-3M melanoma
# [8] = test system: SR leukemia
# [9] = test system: HCT-116 colon
# [10] = test system: MDA-MB-231 breast
# [11] = test system: MDA-MB-468 breast
# [12] = test system: TK-10 renal
# [13] = test system: HS 578T breast
# [14] = test system: NCI-H460 lung
# [15] = test system: RXF 393 renal
# [16] = test system: SK-MEL-2 melanoma
# [17] = test system: KM12 colon
# [18] = test system: HOP-62 NSCLC
# [19] = test system: OVCAR-8 ovarian
# [20] = test system: MCF7 breast
# [21] = test system: NCI-H226 lung
# [22] = test system: ACHN renal
# [23] = test system: SW-620 colon
# [24] = test system: COLO 205 colon
# [25] = test system: T-47D breast
# [26] = test system: DU-145 prostate
# [27] = test system: MDA-MB-435
# [28] = test system: SK-MEL-5 melanoma
# [29] = test system: SNB-75 CNS
structure (smiles),measurement,setting,value
O=C(/C=C/c1cccc(Br)c1)c1nc2ccccc2n1Cc1ccc(Br)cc1,GI50,[1],3.42 µM
same,TGI,[1],12.9 µM
same,GI50,[2],1.7 µM
same,TGI,[2],3.38 µM
same,GI50,[3],2.13 µM
same,TGI,[3],4.9 µM
same,GI50,[4],1.54 µM
same,TGI,[4],3.28 µM
same,GI50,[5],14.4 µM
same,TGI,[5],> 100 µM
same,GI50,[6],2.06 µM
same,TGI,[6],4.08 µM
same,GI50,[7],1.91 µM
same,TGI,[7],3.97 µM
same,GI50,[8],2.53 µM
same,TGI,[8],8.96 µM
same,GI50,[9],1.67 µM
same,TGI,[9],3.14 µM
same,GI50,[10],2.06 µM
same,TGI,[10],4.61 µM
same,GI50,[11],1.87 µM
same,TGI,[11],3.85 µM
same,GI50,[12],3.07 µM
same,TGI,[12],11.6 µM
same,GI50,[13],3.71 µM
same,TGI,[13],> 100 µM
same,GI50,[14],1.77 µM
same,TGI,[14],3.87 µM
same,GI50,[15],1.54 µM
same,TGI,[15],2.95 µM
same,GI50,[16],1.66 µM
same,TGI,[16],3.29 µM
same,GI50,[17],2.53 µM
same,TGI,[17],7.44 µM
same,GI50,[18],2.16 µM
same,TGI,[18],4.76 µM
same,GI50,[19],2.15 µM
same,TGI,[19],5.71 µM
same,GI50,[20],1.7 µM
same,TGI,[20],5.71 µM
same,GI50,[21],2.45 µM
same,TGI,[21],6.13 µM
same,GI50,[22],2.41 µM
same,TGI,[22],6.53 µM
same,GI50,[23],1.6 µM
same,TGI,[23],3.59 µM
same,GI50,[24],1.99 µM
same,TGI,[24],4.11 µM
same,GI50,[25],2.33 µM
same,TGI,[25],9.62 µM
same,GI50,[26],4.1 µM
same,TGI,[26],15.9 µM
same,GI50,[27],2.01 µM
same,TGI,[27],4.79 µM
same,GI50,[28],1.7 µM
same,TGI,[28],3.55 µM
same,GI50,[29],3.4 µM
same,TGI,[29],25.2 µM
